According to patent US20190030053A1, “COMPOSITION FOR INCREASING EXPRESSION OF PGC-1alpha” (BENEBIOSIS CO., LTD., priority 2016, published 2019):

Columns and labels:
high-fat diet mice = test: Subcutaneous fat changes of high-fat diet mice by subcutaneous injection; type: in vivo, mouse; conditions: 0.5 ml of 100 mM, subcutaneous injection day 0 and day 4; observed day 4 and 7
Description: 4-Week-old C56BL/6 mice were purchased from Dooyeul Biotech (Korea). Water was freely accessible, and a commercially available pellet feed (Dooyeul Biotech, Korea) was given for one week. A high-fact (60% fat) diet purchased from Research Diets (New Brunswick, U.S.A) was supplied for 28 days to construct fat-accumulated mice.
0.5 ml of 100 mM 3′-siallylactose or 6′-siallylactose dissolved in a phosphate buffer was subcutaneously injected two times (day 0 and day 4) into four to five sites of the dorsal region of the mouse having fat accumulation induced by a high-fat diet. On day 4 and 7, the skin was observed by the naked eye and dermoscopy. A phosphate buffer was used as a control group (CTL).

3T3-L1 adipocytes = test: Oil-Red O staining of intracellular fat in differentiated adipocytes; type: cell-based; conditions: differentiated 3T3-L1 adipocytes, 0.01-10 mM, 10 days
Description: 3T3-L1 adipocytes were purchased from Korean Cell Line Bank. For the culture and maintenance of 3T3-L1 adipocytes, the cells were subcultured in Dulbecco's modified Eagle's medium (DMEM, Welgene, Korea) supplemented with 10% bovin calf serum (FCS, Welgene, Korea) in a 5% CO2 incubator at 37° C. 3T3-L1 adipocytes were divided into six groups as follows: NT; Normal differentiated cell group (control group), sialyllactose test group; 1, 10, 100, 1000, and 10000 μM test groups treated with sialyllactose (SL, Sigma-Aldrich, USA). For cell differentiation, the cells were dispensed in 6-well plates at a density of 2×10^5 cells per well, and grown to 100% confluency. […]
After differentiation in 6-well plates, 3T3-L1 adipocytes treated with […] or 6’-sialyllactose were washed two times with PBS, and then 2 ml of 10% formalin (Sigma-Aldrich, USA) was added thereto to fix the adipocytes at room temperature for 10 minutes. […] Thereafter, 1 ml of 100% isopropanol (Sigma-Aldrich, USA) was added to effuse stained adipocytes, and then the amount of accumulated fat was measured using absorbance at 500 nm.

`CC(=O)N[C@H]1[C@H]([C@H](O)[C@H](O)CO)O[C@@](OC[C@H]2O[C@@H](O[C@H]3[C@H](O)[C@@H](O)[C@H](O)O[C@@H]3CO)[C@H](O)[C@@H](O)[C@H]2O)(C(=O)O)C[C@@H]1O` [6′-SL, α-NeuNAc-(2→6)-β-D-Gal-(1→4)-D-Glc] was tested, and the “subcutaneous fat (naked eye and dermoscopy)” value (high-fat diet mice) was “greatly reduced subcutaneous fat”, the “intracellular fat (Oil Red O)” value (3T3-L1 adipocytes; listed as 6′-siallylactose) was “greatly reduced” and the “intracellular fat (Oil Red O)” value (3T3-L1 adipocytes; listed as 6′-sialyllactose) was “significantly reduced intracellular fat”.
